Here are results for three compounds from patent publication US9925263B2, “Liquid pharmaceutical formulations for injection comprising procaine and uses thereof” (EAGLE BIOLOGICS, INC., priority 2013, dated 2018).

One series deals with TYSABRI®. Briefly: Viscosity of aqueous solutions of TYSABRI® with viscosity-lowering agents. It counts as physicochemical. As to conditions: 0.25M agent, 25° C., pH 7.0.
The test system of a further series is HERCEPTIN®. Briefly: Viscosity of aqueous solutions of HERCEPTIN® with viscosity-lowering agents. It is filed as physicochemical. As to conditions: 0.25M salt, 25° C., pH 7.0.
For the next series, the system named is VECTIBIX®. Put plainly: Viscosity of aqueous solutions of VECTIBIX® with viscosity-lowering agents. It counts as physicochemical. As to conditions: 0.25M agent, 25° C., pH 7.0. The text has this: (§1) (unless otherwise indicated).
The test system of series [1] is REMICADE®. Briefly: Viscosity of aqueous solutions of […]® with viscosity-lowering agents. It is filed as physicochemical. As to conditions: 0.25M agent, 25° C., pH 7.0. As for the experimental part: as §1
An extrapolated zero-shear viscosity was determined from a plot of absolute viscosity versus shear rate.
(§2) Following reconstitution, the viscosity of each solution was measured using the microfluidic viscometer as described in previous examples. The solutions were then back-loaded into 1 mL BD insulin syringes with 27, 29, or 31 gauge fixed needles. The force required to extrude the concentrated […]® solutions was then measured using an Instron at a rate of displacement equivalent to a fluid flow rate of 3 mL/min. The expelled solution was collected from the syringe and analyzed by size-exclusion chromatography.

The next series has as its system biosimilar RITUXAN®. Put plainly: Viscosity of aqueous solutions of biosimilar RITUXAN® with viscosity-lowering agents.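 Further: absolute viscosity of aqueous antibody solutions determined by microfluidic viscometry (mVROC chip, 50 micron channel) at several flow rates after 5 min equilibration, mean of at least three readings.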
The next series deals with biosimilar ERBITUX®. Put plainly: Viscosity of aqueous solutions of biosimilar ERBITUX® with viscosity-lowering agents. As to conditions: 222 ± 5 mg/mL mAb, pH 7.0, 0.25M agent, 25° C.
Another series concerns biosimilar AVASTIN®. Put plainly: Viscosity of aqueous solutions of biosimilar AVASTIN® with viscosity-lowering agents. It is filed as physicochemical. As to conditions: for Viscosity: 200 ± 5 mg/mL mAb, pH 7.0, 25° C., C & P viscometer.
The test system of the next series is antigen. Put plainly: Antigen binding, […]®-specific ELISA assay. As to conditions: 227 mg/mL, pH 7, 0.25M CSAA, storage at 4° C. As for the experimental part: Biophysical properties of solutions of […]® formulated with 0.25 M CSAA were assessed over 90 days. Samples of […]® formulated with 0.25 M CSAA were prepared as described in Example 1 above. […] (Table 20). Additionally, antigen binding of this processed […]® protein was measured with a […]®-specific ELISA assay and no decrease in binding was seen between days 0 and […] (Table 20).
On the technique in general: An ELISA detects its analyte on a solid surface through an enzyme-linked reagent.

Series [2] relates to REMICADE®. Put plainly: Monomer content of […]® solutions by size exclusion chromatography. It counts as physicochemical. As to conditions: lyophilized powder (cake containing CSAA) stored at 4° C.; reconstituted after 75 days. (In gel filtration, larger molecules generally elute earlier.)
A further series has as its system ARZERRA®. Put plainly: Viscosity of aqueous solutions of ARZERRA® with viscosity-lowering agents. It counts as physicochemical. As to conditions: 0.25M agent, 25° C., pH 7.0.
Description: as §1

The subject of series [3] is REMICADE®. Briefly: Monomer content of […]® solutions by size exclusion chromatography. It counts as physicochemical. As to conditions: 0.25M agent. As for the experimental part:
Biophysical properties of solutions of […]® formulated with 0.25 M CSAA were assessed over 90 days. Samples of […]® formulated with 0.25 M CSAA were prepared as described in Example 1 above.
as §2

Series [4] deals with REMICADE®. Put plainly: Syringe extrusion force of concentrated […]® solutions (Instron). It counts as physicochemical. As to conditions: 1 mL BD insulin syringe, 3 mL/min, REMICADE 224-230 mg/mL, 0.25M agent. Here is the method: as §2

`Cl.N=C(N)NCCC[C@H](N)C(=O)O` [Arginine•HCl, arginine HCl, reference compound]: the Viscosity is 37.0 ± 0.1 cP in the series on TYSABRI® (230 ± 2 mg/mL TYSABRI); 52.3 ± 4.5 cP in the series on TYSABRI® (237 ± 4 mg/mL TYSABRI); 97.2 ± 5.7 cP in the series with TYSABRI® (276 ± 8 mg/mL TYSABRI); 44.8 ± 1.1 cP in the series with HERCEPTIN® (216 ± 0 mg/mL HERCEPTIN); 116 ± 24 cP with HERCEPTIN® (254 ± 3 mg/mL HERCEPTIN); 179 ± 17 cP in the series on HERCEPTIN® (270 ± 6 mg/mL HERCEPTIN). Further, the Viscosity in the series with VECTIBIX® (233 ± 4 mg/mL VECTIBIX) stood at 24.7 ± 1.3 cP; with VECTIBIX® (252 ± 3 mg/mL VECTIBIX), 36.2 ± 1.0 cP; in the series on REMICADE® [1] (166 ± 4 mg/mL REMICADE) it was 110 ± 1 cP; in the series with REMICADE® [1] (222 ± 6 mg/mL REMICADE) it was 486 ± 34 cP; in the series with biosimilar RITUXAN® (220 mg/mL RITUXAN (footnote *), 0.45M agent, 25° C., pH 7.0) it was 86.8 ± 1.8; in the series with biosimilar RITUXAN® (202 ± 2 mg/mL RITUXAN, 0.45M agent, 25° C., pH 7.0), 46.9 ± 0.8. In addition, the Viscosity with biosimilar ERBITUX® is listed as 45.3 ± 0.5 cP; in the series on biosimilar AVASTIN® ([Salt] 0.25 M of anion), 83.2 ± 2.8 cP; in the series on biosimilar AVASTIN® ([Salt] 0.3 M of anion), 71.8 ± 2.2 cP. Besides, the “Fold Reduction” value in the series on biosimilar ERBITUX® (vs phosphate buffer) is 24.9 fold.
Regarding “REMICADE ®: infliximab, mAb against TNF-α; here concentrated solution formulated with 0.25 M CSAA”, the “% binding (ELISA)” value is reported as 105 ± 14% in the series with antigen (day 0), 98 ± 12% in the series on antigen (day 30) and 101 ± 5% with antigen (day 100). Further, the “% Monomer (SEC)” value in the series on REMICADE® [2] was 98.9 ± 0.1%.
Take “camphorsulfonic acid 1-(3-aminopropyl)-2-methyl-1H-imidazole [CSAAPMI]”: the Viscosity in the series on ARZERRA® (245 ± 4 mg/mL ARZERRA) is 53.6 ± 0.6 cP; in the series with ARZERRA® (274 ± 10 mg/mL ARZERRA), 98.9 ± 0.7 cP; with biosimilar RITUXAN® (202 ± 2 mg/mL RITUXAN, 0.25M agent, 25° C., pH 7.0) it was 38.7 ± 0.7; in the series on biosimilar RITUXAN® (pH 7) it was 78.6 ± 2.0. For the same compound, the “% Monomer” value with REMICADE® [3] (expelled through 27 gauge needle, REMICADE 224-230 mg/mL (per agent)) is given as 99.1 ± 0.0%; with REMICADE® [3] (expelled through 29 gauge needle, REMICADE 224-230 mg/mL (per agent)), 99.0 ± 0.0%; in the series on REMICADE® [3] (expelled through 31 gauge needle, REMICADE 224-230 mg/mL (per agent)), 99.0 ± 0.0%; in the series with REMICADE® [3] (pre-syringe, REMICADE 220-230 mg/mL (per agent)), 99.2 ± 0.32%. Also, the “Syringe Force” value with REMICADE® [4] (27 gauge needle) turned out to be 21.9 N; in the series with REMICADE® [4] (29 gauge needle) it was 30.4 N; in the series with REMICADE® [4] (31 gauge needle), 38.4 N. For the same compound, the Viscosity reduction entry in the series on biosimilar AVASTIN® (~230 mg/mL mAb, vs PB, Table 12) is reported as “approximately 5 fold”.
